ChEMBL document CHEMBL4825743, “Novel Substituted Heterocyclic and Heteroaryl Compounds for Treating Huntington's Disease” (ACS Med Chem Lett, 2021)
pIC50: −log10 of the molar value.

biological target: Huntingtin (Homo sapiens, UniProt P42858); assay: Inhibition of Huntingtin protein (unknown origin) incubated for overnight in presence of MW1/MAB2166 monoclonal antibody by ELISA-based MSD electrochemiluminescence assay
Sequence (P42858 whole entry): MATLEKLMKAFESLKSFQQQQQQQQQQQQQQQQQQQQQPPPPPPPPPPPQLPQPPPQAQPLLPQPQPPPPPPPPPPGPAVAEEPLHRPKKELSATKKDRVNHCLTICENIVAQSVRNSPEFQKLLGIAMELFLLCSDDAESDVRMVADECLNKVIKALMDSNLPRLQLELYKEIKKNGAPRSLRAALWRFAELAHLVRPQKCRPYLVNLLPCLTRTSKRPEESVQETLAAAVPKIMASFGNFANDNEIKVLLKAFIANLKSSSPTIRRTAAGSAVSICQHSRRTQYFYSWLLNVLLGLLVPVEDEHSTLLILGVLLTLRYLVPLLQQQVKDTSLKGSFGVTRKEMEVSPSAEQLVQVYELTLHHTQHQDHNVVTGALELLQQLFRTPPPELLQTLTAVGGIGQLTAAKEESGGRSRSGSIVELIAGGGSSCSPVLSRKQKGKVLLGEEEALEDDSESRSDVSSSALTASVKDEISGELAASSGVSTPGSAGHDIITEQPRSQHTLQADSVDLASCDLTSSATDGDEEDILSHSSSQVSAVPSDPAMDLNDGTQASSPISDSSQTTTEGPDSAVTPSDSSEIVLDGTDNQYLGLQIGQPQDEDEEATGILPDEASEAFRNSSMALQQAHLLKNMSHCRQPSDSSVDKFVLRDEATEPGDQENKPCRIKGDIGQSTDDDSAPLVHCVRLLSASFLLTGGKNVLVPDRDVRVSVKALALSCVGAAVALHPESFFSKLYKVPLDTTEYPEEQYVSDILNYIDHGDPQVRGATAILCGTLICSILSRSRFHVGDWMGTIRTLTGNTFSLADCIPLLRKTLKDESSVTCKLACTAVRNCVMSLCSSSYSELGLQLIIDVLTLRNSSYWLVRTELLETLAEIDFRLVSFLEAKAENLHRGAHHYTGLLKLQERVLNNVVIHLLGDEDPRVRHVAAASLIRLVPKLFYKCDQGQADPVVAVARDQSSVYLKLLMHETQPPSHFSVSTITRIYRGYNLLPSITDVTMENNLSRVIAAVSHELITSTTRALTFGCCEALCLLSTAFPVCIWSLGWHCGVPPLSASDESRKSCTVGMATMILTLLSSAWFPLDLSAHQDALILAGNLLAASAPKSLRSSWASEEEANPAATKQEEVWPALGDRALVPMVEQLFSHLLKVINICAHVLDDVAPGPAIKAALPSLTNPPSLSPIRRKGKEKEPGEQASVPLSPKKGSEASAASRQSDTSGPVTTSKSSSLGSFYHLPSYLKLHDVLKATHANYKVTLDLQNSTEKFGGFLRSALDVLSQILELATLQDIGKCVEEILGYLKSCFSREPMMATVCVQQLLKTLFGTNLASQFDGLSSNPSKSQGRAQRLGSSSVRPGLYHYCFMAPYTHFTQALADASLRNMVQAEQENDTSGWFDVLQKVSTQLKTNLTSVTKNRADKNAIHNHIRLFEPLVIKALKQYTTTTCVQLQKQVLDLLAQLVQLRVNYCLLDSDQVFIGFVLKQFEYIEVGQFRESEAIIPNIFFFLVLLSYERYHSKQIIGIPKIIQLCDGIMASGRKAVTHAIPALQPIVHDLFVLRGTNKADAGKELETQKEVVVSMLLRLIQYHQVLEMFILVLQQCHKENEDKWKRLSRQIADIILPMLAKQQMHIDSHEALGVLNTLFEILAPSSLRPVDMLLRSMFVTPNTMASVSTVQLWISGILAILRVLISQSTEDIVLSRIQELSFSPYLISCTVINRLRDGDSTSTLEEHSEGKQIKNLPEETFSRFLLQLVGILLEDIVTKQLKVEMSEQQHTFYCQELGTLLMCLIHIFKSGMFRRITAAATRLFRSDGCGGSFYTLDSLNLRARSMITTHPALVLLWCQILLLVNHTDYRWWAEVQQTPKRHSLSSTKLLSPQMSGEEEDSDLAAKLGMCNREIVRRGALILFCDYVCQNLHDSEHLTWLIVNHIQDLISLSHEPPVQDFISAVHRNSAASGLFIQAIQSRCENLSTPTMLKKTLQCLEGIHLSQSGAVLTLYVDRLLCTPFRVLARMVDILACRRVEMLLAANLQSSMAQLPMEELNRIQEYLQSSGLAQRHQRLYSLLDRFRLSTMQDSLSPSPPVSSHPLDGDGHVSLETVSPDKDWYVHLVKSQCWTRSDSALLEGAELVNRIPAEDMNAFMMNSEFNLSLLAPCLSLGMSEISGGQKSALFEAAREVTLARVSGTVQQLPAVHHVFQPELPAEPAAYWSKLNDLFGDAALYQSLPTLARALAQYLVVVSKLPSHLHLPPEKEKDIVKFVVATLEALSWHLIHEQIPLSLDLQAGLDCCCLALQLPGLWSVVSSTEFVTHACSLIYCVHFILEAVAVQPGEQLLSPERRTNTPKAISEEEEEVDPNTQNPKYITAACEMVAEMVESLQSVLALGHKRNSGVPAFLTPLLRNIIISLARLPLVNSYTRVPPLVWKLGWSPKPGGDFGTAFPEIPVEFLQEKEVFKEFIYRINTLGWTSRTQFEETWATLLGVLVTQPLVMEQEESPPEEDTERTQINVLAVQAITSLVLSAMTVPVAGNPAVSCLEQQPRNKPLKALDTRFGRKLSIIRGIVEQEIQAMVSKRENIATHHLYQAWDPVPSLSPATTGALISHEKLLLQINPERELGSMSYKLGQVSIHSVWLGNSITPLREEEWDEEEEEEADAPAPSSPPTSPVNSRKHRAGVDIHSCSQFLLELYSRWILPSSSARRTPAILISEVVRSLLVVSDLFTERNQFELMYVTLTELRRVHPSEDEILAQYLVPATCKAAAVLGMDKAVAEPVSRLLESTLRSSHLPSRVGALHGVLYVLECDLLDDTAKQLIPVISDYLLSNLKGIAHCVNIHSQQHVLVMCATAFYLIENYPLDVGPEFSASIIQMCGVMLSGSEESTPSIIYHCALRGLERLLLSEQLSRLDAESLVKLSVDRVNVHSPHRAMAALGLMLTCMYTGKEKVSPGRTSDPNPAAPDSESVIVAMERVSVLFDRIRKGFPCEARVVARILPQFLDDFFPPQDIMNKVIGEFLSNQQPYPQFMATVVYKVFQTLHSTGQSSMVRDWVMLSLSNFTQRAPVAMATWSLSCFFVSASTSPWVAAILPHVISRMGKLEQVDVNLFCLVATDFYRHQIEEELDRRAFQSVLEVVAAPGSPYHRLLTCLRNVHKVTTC

Row | SMILES | pIC50
1 | COc1ncnc(-c2ccc(-c3cc4nnn(C5CC(C)(C)NC(C)(C)C5)c4nn3)c(O)c2)n1 | ≥ 7.00
2 | CC1(C)CC(n2nnc3cc(-c4ccc(-c5nccs5)cc4O)nnc32)CC(C)(C)N1 | ≥ 7.00
3 | CC1(C)CC(n2nnc3cc(-c4ccc(-c5ncco5)cc4O)nnc32)CC(C)(C)N1 | ≥ 7.00
4 | CC1(C)CC(n2nnc3cc(-c4ccc(-c5nncs5)cc4O)nnc32)CC(C)(C)N1 | ≥ 7.00
5 | CC1(C)C=C(c2csc3cc(-c4ccc(-c5cn[nH]c5)cc4O)nnc23)CC(C)(C)N1 | ≥ 7.00
6 | CC1(C)CC(n2nnc3cc(-c4ccc(-n5nccn5)cc4O)nnc32)CC(C)(C)N1 [VOTOPLAM] | ≥ 7.00
